Measured values reported in PubChem BioAssay (NCI).
“And” between values parts separate entries of the source, which are not always exact repeats. Identical values can stand only once.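 Step 1: Grow cells in 96-well plates. Step 2: Expose to compound for 48 hours at 5 concentrations. Step 3: Interpolate endpoints linearly; if unreached, use highest concentration. GI50: concentration for 50% inhibition of growth. TGI is the concentration that stops growth completely.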

What was measured:
Assay in all cases: growth of human tumour cells (NCI), 48 h
[1] = tested on: CAKI-1 renal
[2] = tested on: EKVX NSCLC
[3] = tested on: HCC-2998 colon
[4] = tested on: K-562 leukemia
[5] = tested on: MCF7 breast
[6] = tested on: OVCAR-4 ovarian
[7] = tested on: SF-268 CNS
[8] = tested on: SK-OV-3 ovarian
[9] = tested on: SNB-19 CNS
[10] = tested on: TK-10 renal
[11] = tested on: A498 renal

Structure (SMILES)	TGI [1]	TGI [2]	TGI [3]	TGI [4]	TGI [5]	TGI [6]	TGI [7]	TGI [8]	TGI [9]	TGI [10]	TGI [11]	GI50 [11]	GI50 [4]	GI50 [6]	GI50 [7]	GI50 [8]
Cc1ccc([N+](=O)[O-])c2c(NCC(O)CO)ccnc12 (stereo unspecified)	> 100 µM	> 100 µM	> 100 µM	> 100 µM	> 100 µM	> 100 µM	> 100 µM	> 100 µM	> 100 µM	> 100 µM						
COc1ccc(C2=NN=C3C(c4ccccc4)=Nc4ccccc4N3C2)cc1		> 100 µM	> 100 µM	> 100 µM	85 µM	45.6 µM	> 100 µM	> 100 µM	> 100 µM	> 100 µM	> 100 µM					
CCOC(=O)C(NC(=O)OC(C)(C)C)C(=O)OCC	> 100 µM	> 100 µM	> 100 µM	> 100 µM	> 100 µM	> 100 µM	> 100 µM	> 100 µM	> 100 µM	> 100 µM						
OC(CC(O)(C(F)(F)F)C(F)(F)F)c1ccc(C(O)CC(O)(C(F)(F)F)C(F)(F)F)cc1 (stereo unspecified)	27.3 µM	28 µM	33.3 µM	60.7 µM		29.8 µM	28.9 µM	31.9 µM	30.9 µM		25.1 µM					
CCN(CC)CC(=N)N(CC)c1ccccc1	> 100 µM	> 100 µM	> 100 µM	> 100 µM		> 100 µM	> 100 µM	> 100 µM	> 100 µM	> 100 µM	> 100 µM					
COc1ccc(N2C(=O)C3c4[nH]c5ccccc5c4C4CCCCC4C3C2=O)cc1 (stereo unspecified)	> 100 µM	37.7 µM	40.7 µM	73.8 µM		23.6 µM	26.4 µM	52.7 µM	> 100 µM	58.8 µM	54.4 µM					
Cc1ccc(-n2cc([Si](C)(C)C)nn2)s1	> 100 µM		> 100 µM	> 100 µM	> 100 µM	> 100 µM	> 100 µM	> 100 µM	> 100 µM	> 100 µM	> 100 µM					
Fc1cc(-c2cc(-c3ccc4c(c3)OCO4)n[nH]2)c(Cl)cc1Cl	10.8 µM	5.17 µM	15.6 µM	> 40.1 µM		4.49 µM	9.7 µM	5.44 µM	12.9 µM	7.06 µM						
NC1CC=C(COC(=O)C(O)(c2ccccc2)C2CC2)CC1 (stereo unspecified)	> 100 µM	> 100 µM	> 100 µM		> 100 µM		> 100 µM	> 100 µM	> 100 µM	> 100 µM						
O=C1CSc2cc([N+](=O)[O-])ccc2N1	> 100 µM	> 100 µM	> 100 µM	> 100 µM		> 100 µM	> 100 µM	> 100 µM	> 100 µM	> 100 µM	> 100 µM					
O=C1c2ccccc2C(=O)c2[nH]c(Cc3ccc(F)cc3)nc21	50.2 µM	39.8 µM	42.8 µM	> 100 µM		34.9 µM	66.3 µM		51.3 µM	53.1 µM						
C/C=C(/C)C(=O)O[C@H]1[C@H](O)CC(c2ccc3c(c2O)C(O)=C2C(=O)C4(OC)C(O)=C(C(N)=O)C(=O)[C@H](CC(=O)c5ccccc5O)C4CC2[C@@]3(C)OC)O[C@@H]1C (stereo partly specified)		0.518 µM	1.25 µM and 1.05 µM	10.7 µM	1.15 µM	17 µM	2.91 µM	5.72 µM and 2.05 µM	1.68 µM and 1.06 µM	6.19 µM and 4.65 µM	2.21 µM and 1.49 µM	0.0198 µM				
O=C(O)Cn1cc([N+](=O)[O-])c(=O)c2ccccc21	> 100 µM		> 100 µM	> 100 µM	> 100 µM		> 100 µM	> 100 µM	> 100 µM	> 100 µM	> 100 µM					
Cn1c(=O)c2/c(n(C)c1=O)=N\C=c1\c(=O)n(C)c(=O)n(C)\c1=N\C=2	> 100 µM	> 100 µM	> 100 µM	> 100 µM		> 100 µM	> 100 µM		> 100 µM	> 100 µM	> 100 µM					
O=C(/C=C\c1cccc2ccccc12)c1cccc2ccccc12	32.4 µM	27.6 µM	28.4 µM	18.6 µM		36.9 µM	22.1 µM		23.7 µM		31.7 µM		2.82 µM	11.3 µM	4.74 µM	
Cc1ccc(N=C2C(=Nc3ccc(C)cc3)N(c3ccc(C)cc3)C(=S)N2C(=O)c2ccccc2)cc1	> 100 µM	> 100 µM	> 100 µM	> 100 µM	> 100 µM		> 100 µM	> 100 µM	> 100 µM	> 100 µM						
O=C1CC2CCC(C1)S2=O (stereo unspecified)	> 100 µM	> 100 µM	> 100 µM	> 100 µM	> 100 µM	> 100 µM	> 100 µM	> 100 µM	> 100 µM	> 100 µM						
Oc1ccc(Cl)cc1C1=NC(/N=C\c2ccccc2)=NC(c2ccccc2)C1 (stereo unspecified)	28.1 µM	> 100 µM		> 100 µM	> 100 µM		> 100 µM	74.7 µM		> 100 µM	> 100 µM					
CC(=O)[CH-]C(=O)c1ccccc1.CC(=O)[CH-]C(=O)c1ccccc1.CC[O-].O=C1c2ccccc2C(=O)c2c1ccc(O)c2[O-].[Ti+4]	> 100 µM	83.2 µM	> 100 µM	> 100 µM		> 100 µM	> 100 µM	> 100 µM	> 100 µM		83.5 µM					52.5 µM
CC(=O)N/C(=C\c1ccc(Cc2nc3c([nH]2)C(=O)c2ccccc2C3=O)cc1)c1nc2c([nH]1)C(=O)c1ccccc1C2=O	> 100 µM	> 100 µM	> 100 µM	> 100 µM		> 100 µM	> 100 µM	> 100 µM	> 100 µM	> 100 µM	> 100 µM					
O=S1Nc2c(Cl)cc(Cl)c(Cl)c2S1 (stereo unspecified)	> 100 µM	> 100 µM	> 100 µM	> 100 µM		> 100 µM	> 100 µM	> 100 µM	> 100 µM	> 100 µM	> 100 µM					
